# What was measured:
# [1] = Cmax in Wistar BRL rat plasma at 5 mg/kg, po; assay type: ADME, organism-based; set-up: dose 5 mg/kg, route oral
# [2] = Volume of distribution at steady state in Wistar BRL rat plasma at 1 mg/kg, iv and 5 mg/kg, po; assay type: ADME, organism-based; settings: read-out: Vdss
# [3] = Dissociation constant, pKa of the compound; assay type: physicochemical
# [4] = Lipophilicity, log D of the compound; assay type: physicochemical; settings: octanol/water
# Rattus norvegicus = test: Unbound Cmax in Wistar BRL rat plasma at 5 mg/kg, po; assay type: ADME, organism-based; set-up: dose 5 mg/kg, route oral; settings: in vivo
# [5] = Oral bioavailability in Wistar BRL rat at 5 mg/kg; assay type: ADME, organism-based; settings: in vivo
# [6] = Apparent permeability across human Caco2 cell membrane at 20 uM after 1 hr by LC-MS/MS analysis; settings: Caco-2
# in vivo [7] = settings: Wistar BRL, rat, brain, po, 20 mg/kg
# in vivo [8] = settings: Wistar BRL, rat, cerebrospinal fluid, po, 20 mg/kg
Compound,pKa [3],logD [4],further results
CC(C)CN1C(=O)CN(Cc2ccc(-c3cccc(CN4CCCCC4)n3)cc2)C1=O,8.9,2.8,"Cmax [1]: 20 nM; Vd [2]: 5.4 L/kg; fCmax (Rattus norvegicus): 0.006 µM; bioavailability [5]: 4%; Papp at 1 h, 20 µM [6]: 21 ×10⁻⁶ cm/s"
CCCN1C(=O)CN(Cc2ccc(-c3cccc(CN4CCCCC4)n3)cc2)C1=O,8.8,2.2,–
CCN1C(=O)CN(Cc2ccc(-c3cccc(CN4CCCCC4)n3)cc2)C1=O,8.8,1.7,–
CN1C(=O)CN(Cc2ccc(-c3cccc(CN4CCCCC4)n3)cc2)C1=O,8.7,1.3,–
CC(C)N1C(=O)CN(Cc2ccc(-c3cccc(CN4CCCCC4)n3)cc2)C1=O,–,2.2,–
O=C1CN(Cc2ccc(-c3cccc(CN4CCCCC4)n3)cc2)C(=O)N1C1CC1,9,1.6,–
O=C1CN(Cc2ccc(-c3cccc(CN4CCCCC4)n3)cc2)C(=O)N1C1CCC1,–,2.7,–
O=C1CN(Cc2ccc(-c3cccc(CN4CCCCC4)n3)cc2)C(=O)N1CC1CC1,8.9,2.5,–
O=C1CN(Cc2ccc(-c3cccc(CN4CCCCC4)n3)cc2)C(=O)N1CC(F)F,8.9,1.6,–
O=C1CN(Cc2ccc(-c3cccc(CN4CCCCC4)n3)cc2)C(=O)N1CC(F)(F)F,–,1.9,–
CCN1C(=O)CN(Cc2ccc(-c3ccc(F)c(CN4CCCCC4)n3)cc2)C1=O,8.5,2.1,–
CCCN1C(=O)CN(Cc2ccc(-c3ccc(F)c(CN4CCCCC4)n3)cc2)C1=O,8.5,2.5,–
CC(C)CN1C(=O)CN(Cc2ccc(-c3ccc(F)c(CN4CCCCC4)n3)cc2)C1=O,8.6,3.4,–
O=C1CN(Cc2ccc(-c3ccc(F)c(CN4CCCCC4)n3)cc2)C(=O)N1C1CC1,8.6,2,–
O=C1CN(Cc2ccc(-c3ccc(F)c(CN4CCCCC4)n3)cc2)C(=O)N1CC1CC1,8.5,2.8,–
O=C1CN(Cc2ccc(-c3ccc(F)c(CN4CCCCC4)n3)cc2)C(=O)N1CC1CCC1,8.6,3.5,–
O=C1CN(Cc2ccc(-c3ccc(F)c(CN4CCCCC4)n3)cc2)C(=O)N1CC(F)F,9,1.9,–
CC(C)CN1C(=O)CN(Cc2ccc(-c3cccc(CN4CCCC(C)C4)n3)cc2)C1=O (centres undefined),8.7,3.4,–
CC(C)CN1C(=O)CN(Cc2ccc(-c3ccc(F)c(CN4CCCC(C)C4)n3)cc2)C1=O (centres undefined),8.4,3.9,–
CC(C)CN1C(=O)CN(Cc2ccc(-c3cccc(CN4CCCC(F)C4)n3)cc2)C1=O (centres undefined),7.4,3.7,–
CC(C)CN1C(=O)CN(Cc2ccc(-c3ccc(F)c(CN4CCCC(F)C4)n3)cc2)C1=O (centres undefined),7.2,4.1,–
CC(C)CN1C(=O)CN(Cc2ccc(-c3ccc(F)c(CN4CCOCC4)n3)cc2)C1=O,6,3.4,–
CC(C)CN1C(=O)CN(Cc2ccc(-c3cccc(CN4CCCC(F)(F)C4)n3)cc2)C1=O,5.3,4.5,–
CC(C)CN1C(=O)CN(Cc2ccc(-c3ccc(F)c(CN4CCCC(F)(F)C4)n3)cc2)C1=O,5,4.7,–
CC(C)CN1C(=O)CN(Cc2ccc(-c3cccc(CN4CCS(=O)(=O)CC4)n3)cc2)C1=O,3.7,3,–
CC(C)CN1C(=O)CN(Cc2ccc(-c3ccc(F)c(CN4CCS(=O)(=O)CC4)n3)cc2)C1=O,3,3,–
CCN1C(=O)CN(Cc2ccc(-c3cccc(CC4CCCCC4)n3)cc2)C1=O,–,5.6,–
O=C1CN(Cc2ccc(-c3ccc(F)c(CN4CCS(=O)(=O)CC4)n3)cc2)C(=O)N1C1CC1,2.8,1,"Cmax [1]: 3800 nM; Vd [2]: 0.94 L/kg; fCmax (Rattus norvegicus): 1.7 µM; Kp at 4 h (in vivo [7]): 0.05; bioavailability [5]: 100%; Kp at 4 h (in vivo [8]): 0.14; Papp at 1 h, 20 µM [6]: 17.3 ×10⁻⁶ cm/s"

# From ChEMBL document CHEMBL1833934, “Discovery and optimization of 1-(4-(pyridin-2-yl)benzyl)imidazolidine-2,4-dione derivatives as a novel class of selective cannabinoid CB2 receptor agonists” (J Med Chem, 2011)
